Experimental data reported in patent US7064116B2, “GABAA modulating neurosteroids” (priority 2000, dated 2006).

Experiments:
[1] = molecular target: benzodiazepine site of the GABAA/BZ/chloride channel complex (rat brain GBR enriched synaptosomal preparation); assay: Enhancement of [3H]-Flunitrazepam binding to the benzodiazepine site in rat brain synaptosomal membranes; details: for EC50: enhancement of 1 nM [3H]-Flunitrazepam binding, 40 μg rat brain synaptosomal membrane, 30° C., 30 min; for Maximum stimulation: maximum stimulation of 1 nM [3H]-Flunitrazepam specific binding, normalized to control without test compound

SMILES	melting point	EC50 [1]	Maximum stimulation [1]
C[C@]12CC[C@@H](N=[N+]=[N-])C[C@@H]1CC[C@@H]1[C@@H]2CC[C@]2(C)[C@@H](C(=O)CBr)CC[C@@H]12	108 to 110 °C	–	–
C=C=CC(O)[C@H]1CC[C@H]2[C@@H]3CC[C@H]4CC(O)CC[C@]4(C)[C@H]3CC[C@]12C (mixture of isomers) [17β-(1-hydroxy-2,3-butadienyl)-5α-androstane-3ol (mixture of C-20 epimers), 17β-(1-hydroxy-2,3-butadienyl)-5α-androstane-3-ol]	174 to 177 °C	5.9 nM	45.8%
C#CC(OC)[C@H]1CC[C@H]2[C@@H]3CC[C@H]4C[C@H](O)CC[C@]4(C)[C@H]3CC[C@]12C (mixture of isomers) [17β-(1-methoxy-2-propynyl)-5α-androstan-3α-ol (mixture of C-20 epimers), 17β-(1-methoxy-2-propynyl)-5α-androstan-3α-ol]	161 to 163 °C	4.48 nM	18.1%
C#CC(O)[C@H]1CC[C@H]2[C@@H]3CC[C@H]4CC(O)CC[C@]4(C)[C@H]3CC[C@]12C (single isomer, unassigned) [17β-(1-hydroxy-2-propynyl)-5α-androstan-3-ol (less polar C-20 epimer), 17β-(1-hydroxy-2-propynyl)-5α-androstan-3-ol]	–	inactive	–
COc1ccc(C#CC(O)[C@H]2CC[C@H]3[C@@H]4CC[C@H]5C[C@H](O)CC[C@]5(C)[C@H]4CC[C@]23C)cc1 (single isomer, unassigned) [17β-[1-hydroxy-3-(4-methoxyphenyl)-2-propynyl]-5α-androstan-3α-ol]	–	36.3 nM	23.3%
C[C@]12CC[C@@H](N=[N+]=[N-])C[C@@H]1CC[C@@H]1[C@@H]2CC[C@]2(C)[C@@H](C(=O)CN=[N+]=[N-])CC[C@@H]12 [3α,21-di-azido-5α-pregnan-20-one]	133 to 135 °C	314 nM	16.4%
CC(=O)[C@H]1CC[C@H]2[C@@H]3CC[C@H]4C[C@H](N=[N+]=[N-])CC[C@]4(C)[C@H]3CC[C@]12C [3α-azido-5α-pregnan-20-one, 3α-Azido-5α-pregnan-20-one]	159 to 162 °C	inactive	–
CC(=O)[C@H]1CC[C@H]2[C@@H]3CC[C@H]4C[C@H](O)CC[C@]4(C)[C@H]3CC[C@]12C [3α-hydroxy-5α-pregnan-20-one, reference compound]	–	212 nM	36%
C[C@]12CC[C@@H](O)C[C@@H]1CC[C@@H]1[C@@H]2CC[C@]2(C)[C@@H](C#CBr)CC[C@@H]12 [17β-(2-bromoethynyl)-5α-androstane-3α-ol]	165 to 167 °C	326 nM	72.7%
COC(=O)C#C[C@H]1CC[C@H]2[C@@H]3CC[C@H]4C[C@H](O)CC[C@]4(C)[C@H]3CC[C@]12C [17β-(2-methoxycarbonylethynyl)-5α-androstane-3α-ol]	135 to 137 °C	515 nM	55.6%
CC(O)C#C[C@H]1CC[C@H]2[C@@H]3CC[C@H]4C[C@H](O)CC[C@]4(C)[C@H]3CC[C@]12C (stereo partly drawn) [17β-(3-hydroxy-1-butynyl)-5α-androstane-3α-ol]	169 to 171 °C	inactive	–
CC(=O)C#C[C@H]1CC[C@H]2[C@@H]3CC[C@H]4C[C@H](O)CC[C@]4(C)[C@H]3CC[C@]12C [17β-(3-oxo-1-butynyl)-5α-androstan-3α-ol]	148 to 150 °C	inactive	–
Cc1ccc(C#C[C@H]2CC[C@H]3[C@@H]4CC[C@H]5C[C@H](O)CC[C@]5(C)[C@H]4CC[C@]23C)cc1 [17β-[2-(4-tolyl)ethynyl]-5α-androstane-3α-ol]	178 to 180 °C	2380 nM	52.6%
